Measurements: patent US11414677B2, “Methods and compositions for performing continuous directed evolution” (Massachusetts Institute of Technology, priority 2017, dated 2022)

Columns and labels:
RFP.ΔAdPol.adenovirus = assay: Time course of antibiotic inhibition of adenoviral replication; format: cell-based, Adenovirus type 5; conditions: treatment initiated 24 h post-infection
From the text: FIGS. 47A-47B. Time-course of antibiotic-mediated inhibition of adenoviral infection. HEK293A cells expressing wild-type AdPol were infected with RFP.ΔAdPol.adenovirus and treated with either a) puromycin, or b) blasticidin at various time points post-infection (h.p.i.=hours post-infection). After 2 days, the infections were harvested and titered by flow cytometry. Titers are given in infectious units per milliliter (IU/mL), defined as the volume of adenoviral supernatant required to induce fluorescence in a cell as analyzed by flow cytometry. Dashed line represents the limit of detection (L.O.D) of the assay. Titers below this limit are inaccurate due to the percentage of infected cells being below the 1% error threshold of flow cytometry.
RFP.ΔAdPol.adenovirus (TABLE 16) was used to infect a 24-well plate of wild-type AdPol cells (150,000 cells/well) (TABLE 17) at MOI=1, and either blasticidin or puromycin was added at various time points following the infection. Viral supernatants were harvested ˜48 h post-infection, and titered by flow cytometry as described above.

[1] = test system: ΔAdPol.adenovirus encoding either tTA or RFP; assay: tTA-induced resistance to antibiotic inhibition of adenoviral replication; format: cell-based, Adenovirus type 5; conditions: treatment 10 h post-infection
Description: FIGS. 48A-48D. tTA-induced resistance to antibiotic mediated inhibition of adenoviral infection. Either wild-type AdPol cells, TRE3G.puroR cells, or TRE3G.blastR cells were infected with ΔAdPol.adenovirus encoding either tTA (+tTA) or RFP (−tTA). Ten hours post-infection, wild-type AdPol cells were treated with either puromycin (FIG. 48A) or (FIG. 48B) blasticidin, TRE3G.puroR cells were treated with puromycin (FIG. 48C), and TRE3G.blastR cells were treated with blasticidin (FIG. 48D). After 2, days, the infections were harvested and titered by flow cytometry. Titers are given in infectious units per milliliter (IU/mL), defined as the volume of adenoviral supernatant required to induce fluorescence in a cell as analyzed by flow cytometry. Dashed line represents the limit of detection (L.O.D) of the assay. Titers below this limit are inaccurate owing to the percentage of infected cells being below the 1% error threshold of flow cytometry.
Either RFP.ΔAdPol.adenovirus, or tTA.mCherry.ΔAdPol.adenovirus (TABLE 16) was used to infect a 24-well plate of either wild-type AdPol cells, TRE3G.puroR cells, or TRE3G.blastR cells (150,000 cells/well) (TABLE 17) at MOI=1, and either puromycin or blasticidin was added 10 h post-infection. Viral supernatants were harvested ˜48 h post-infection, and titered by flow cytometry as described above.

HEK293A cells = assay: Resazurin assay to assess acute toxicity of common tissue culture antibiotics; format: cell-based, human; conditions: two-day treatment
Description: FIGS. 46A-46D. Resazurin assay to assess acute toxicity of common tissue culture antibiotics. HEK293A cells were treated for two days with either G418 (FIG. 46A), puromycin (FIG. 46B), blasticidin (FIG. 46C), or hygromycin (FIG. 46D), and cell viability was analyzed by resazurin fluorescence.
A 96-well plate was seeded with HEK293A cells (˜15,000) and treated with either puromycin HCl (Corning), Hygromycin B (Thermo Fisher), Blasticidin S HCl (Thermo Fisher), or G418 (Enzo). Two days later, 10 μL of 0.1 mg/mL resazurin (MilliporeSigma) was added and incubated for 1.5 h. Media was transferred to a fresh 96-well plate and fluorescence was analyzed on a Bio-Tek Synergy H1 Hybrid Microplate Reader.

[2] = test system: 1:10 mixture of tTA.mCherry.ΔAdPol.adenovirus and CFP.GFP.ΔAdPol.adenovirus; assay: Enrichment of tTA-expressing adenovirus by blasticidin selection in TRE3G.blastR cells; format: cell-based, Adenovirus type 5; conditions: 20 μM blasticidin, added 10 h post-infection
Description: FIG. 49. Enrichment of adenoviruses encoding positive BOI variants by antibiotic selection. TRE3G.blastR cells were infected with a 1:10 mixture of ΔAdPol.adenovirus encoding either tTA (+tTA) or CFP (−tTA) and treated with blasticidin 10 h post-infection. Two days post-infection, adenoviruses were harvested and titered by flow cytometry. Titers are given in infectious units per milliliter (IU/mL), defined as the volume of adenoviral supernatant required to induce fluorescence in a cell as analyzed by flow cytometry. Dashed line represents the limit of detection (L.O.D) of the assay. Titers below this limit are inaccurate due to the percentage of infected cells being below the 1% error threshold of flow cytometry.
A 1:10 mixture of tTA.mCherry.ΔAdPol.adenovirus and CFP.GFP.ΔAdPol.adenovirus (TABLE 16) was used to infect a 24-well plate of TRE3G.blastR cells (150,000 cells/well) (TABLE 17) at MOI=0.7, and blasticidin was added 10 h post-infection. Viral supernatants were harvested ˜48 h post-infection, and titered by flow cytometry as described above.

tTAwt.mCherry adenovirus [3] = format: cell-based, Adenovirus type 5
Description: FIGS. 21A-21C. FIG. 21A. […] HEK293A cells stably encoding the gene for adenoviral protease (AdProt) under control of the endogenous tTA operator are infected by an initial ratio of 1:100 or 1:1,000 tTAwt.mCherry to tTAmut.GFP viruses. Viral media was serially passaged onto a new plate of cells for three rounds. The viral populations were then determined via flow cytometry. FIG. 21B. Quantification of flow cytometry data from the competition experiment. […] The initial ratio of the 1:1,000 sample (labeled N.D.; not detectable) was not experimentally quantifiable owing to the low amount of tTAwt.mCherry adenovirus present, and was therefore derived by dilution of the 1:100 initial ratio. For raw flow cytometry data, see FIG. 26 and FIG. 27. FIG. 21C. […]
Adenoviral titers were determined through flow cytometry. […] 2-3 days post-infection, cells were washed once with media, stained with 0.2 μg/mL DAPI, and then analyzed on a BD LSR II Analyzer for fluorescent protein expression. Infectious titers were determined by measuring the percentage of cells infected by a known volume of virus. To minimize counting cells that were infected by more than one virus and to minimize any background fluorescence, data were only considered if they fell within the linear range, which typically encompassed samples where 1-10% of cells were infected. […]

tTAwt.mCherry adenovirus [4] = assay: Doxycycline dose response of tTAwt.mCherry adenovirus titer in TRE3G.AdProt cells; format: cell-based, Adenovirus type 5; conditions: synchronous infection, various dox concentrations
Description: FIG. 36. Dose response of tTA-mCherry titer when treated with doxycycline. […] Titer is given in “infectious units per mL” (IU/mL), which is defined as the number of viruses per mL that are able to elicit a fluorescent signal in cells when analyzed by flow cytometry.
A semi-confluent dish of TRE3G.AdProt cells (˜160,000 cells) (TABLE 13) was infected with tTAwt. mCherry adenovirus (multiplicity of infection ˜2.5) (TABLE 12). After 3 h, the cells were washed twice, and fresh tet-approved media (Takara Bio) supplemented with various concentrations of dox was added. 5 days later, the virus lysates were harvested and viral titers were analyzed by flow cytometry.

[5] = test system: AdGLΔPol adenoviral genome; conditions: high fidelity deep sequencing by Sanjuán and co-workers (Risso-Ballester et al. 2016); cited from earlier work

CN(CC[C@H](N)CC(=O)N[C@H]1C=C[C@H](n2ccc(N)nc2=O)O[C@@H]1C(=O)O)C(=N)N [blasticidin]
inhibition of adenoviral replication (RFP.ΔAdPol.adenovirus): Neither puromycin nor blasticidin were able to inhibit adenoviral replication | effect on RFP.ΔAdPol.adenovirus ([1]; TRE3G.blastR cell line): still inhibited | effect on tTA.ΔAdPol.adenovirus ([1]; TRE3G.blastR cell line): completely resistant to blasticidin treatment | effect on ΔAdPol.adenovirus replication ([1]; wild-type AdPol cell line): inhibited both RFP-expressing and tTA-expressing ΔAdPol.adenovirus replication | dynamic range of inhibitory concentrations (HEK293A cells): over two orders of magnitude | acute toxicity (cell viability by resazurin fluorescence) (HEK293A cells; various concentrations): completely toxic | drop of CFP.ΔAdPol.adenovirus titer [2]: over 100 fold | tTA.mCherry.ΔAdPol.adenovirus titer [2]: remained steady

C[C@H]1c2cccc(O)c2C(=O)C2=C(O)[C@]3(O)C(=O)C(C(N)=O)=C(O)[C@@H](N(C)C)[C@@H]3[C@@H](O)[C@@H]21 [dox, doxycycline]
decrease in viral titer (tTAwt.mCherry adenovirus [3]): ~10 fold | modulation of adenoviral titers (tTAwt.mCherry adenovirus [4]): ~10 fold

B1: AdPol: high fidelity wild-type adenovirus type-5 DNA polymerase (protein, UniProt P04495 1-1198, looked up)
DNA polymerase: MALVQAHRARRLHAEAPDSGDQPPRRRVRQQPTRAAPAPARARRRRAPAPSPGGSGAPPTSGGSPASPLLDASSKDTPAAHRPPRGTVVAPRGCGLLQAIDAATNQPLEIRYHLDLARALTRLCEVNLQELPPDLTPRELQTMDSSHLRDVVIKLRPPRADIWTLGSRGVVVRSTVTPLEQPDGQGQAAEVEDHQPNPPGEGLKFPLCFLVRGRQVNLVQDVQPVHRCQYCARFYKSQHECSARRRDFYFHHINSHSSNWWREIQFFPIGSHPRTERLFVTYDVETYTWMGAFGKQLVPFMLVMKFGGDEPLVTAARDLAANLGWDRWEQDPLTFYCITPEKMAIGRQFRTFRDHLQMLMARDLWSSFVASNPHLADWALSEHGLSSPEELTYEELKKLPSIKGIPRFLELYIVGHNINGFDEIVLAAQVINNRSEVPGPFRITRNFMPRAGKILFNDVTFALPNPRSKKRTDFLLWEQGGCDDTDFKYQYLKVMVRDTFALTHTSLRKAAQAYALPVEKGCCAYQAVNQFYMLGSYRSEADGFPIQEYWKDREEFVLNRELWKKKGQDKYDIIKETLDYCALDVQVTAELVNKLRDSYASFVRDAVGLTDASFNVFQRPTISSNSHAIFRQIVFRAEQPARSNLGPDLLAPSHELYDYVRASIRGGRCYPTYLGILREPLYVYDICGMYASALTHPMPWGPPLNPYERALAARAWQQALDLQGCKIDYFDARLLPGVFTVDADPPDETQLDPLPPFCSRKGGRLCWTNERLRGEVATSVDLVTLHNRGWRVHLVPDERTTVFPEWRCVAREYVQLNIAAKERADRDKNQTLRSIAKLLSNALYGSFATKLDNKKIVFSDQMDAATLKGITAGQVNIKSSSFLETDNLSAEVMPAFQREYSPQQLALADSDAEESEDERAPTPFYSPPSGTPGHVAYTYKPITFLDAEEGDMCLHTLERVDPLVDNDRYPSHLASFVLAWTRAFVSEWSEFLYEEDRGTPLEDRPLKSVYGDTDSLFVTERGHRLMETRGKKRIKKHGGNLVFDPERPELTWLVECETVCGACGADAYSPESVFLAPKLYALKSLHCPSCGASSKGKLRAKGHAAEGLDYDTMVKCYLADAQGEDRQRFSTSRTSLKRTLASAQPGAHPFTVTQTTLTRTLRPWKDMTLARLDEHRLLPYSESRPNPRNEEICWIEMP
estimated mutation rate [5]: ~1.3×10^−7 mutations per base per viral passage
